According to BigSolDB 2.1:

CCc1ccc(C(=O)c2ccccc2C(=O)O)cc1
Conditions	solubility (mole fraction)
in 1,4-dioxane, 288.88 K	0.0042
in 1,4-dioxane, 293.97 K	0.0066
in 1,4-dioxane, 298.46 K	0.0091
in 1,4-dioxane, 303.53 K	0.0121
in 1,4-dioxane, 308.09 K	0.0153
in 1,4-dioxane, 313.4 K	0.0195
in 1,4-dioxane, 319.15 K	0.024
in 1,4-dioxane, 322.54 K	0.0278
in 1,4-dioxane, 333.97 K	0.0353
in DMF, 281.2 K	0.343
in DMF, 286.49 K	0.367
in DMF, 290.63 K	0.382
in DMF, 296.42 K	0.42
in DMF, 305.65 K	0.451
in DMF, 314.34 K	0.47
in DMF, 325.55 K	0.507
in DMF, 335.75 K	0.532
in NMP, 280.1 K	0.163
in NMP, 284.15 K	0.175
in NMP, 293.44 K	0.209
in NMP, 303.76 K	0.26
in NMP, 313.15 K	0.315
in NMP, 322.85 K	0.396
in NMP, 334.3 K	0.484
in THF, 281.2 K	0.0064
in THF, 286.49 K	0.0085
in THF, 296.42 K	0.0125
in THF, 305.65 K	0.0178
in THF, 314.34 K	0.0246
in THF, 325.55 K	0.0377
in THF, 330.34 K	0.0442
in THF, 335.75 K	0.0541
in acetone, 280.25 K	0.0015
in acetone, 284.85 K	0.0022
in acetone, 290.87 K	0.0032
in acetone, 299.83 K	0.0054
in acetone, 310.39 K	0.0087
in acetone, 314.89 K	0.0107
in acetone, 319.6 K	0.0132
in acetone, 324.16 K	0.0156
in benzene, 283.05 K	0.0023
in benzene, 288.68 K	0.0037
in benzene, 293.52 K	0.0052
in benzene, 302.78 K	0.0109
in benzene, 313.15 K	0.0228
in benzene, 322.65 K	0.0408
in benzene, 328.38 K	0.0598
in benzene, 332.7 K	0.0793
in ethanol, 282.29 K	0.0733
in ethanol, 289.68 K	0.1
in ethanol, 294.91 K	0.123
in ethanol, 304.6 K	0.164
in ethanol, 314.3 K	0.214
in ethanol, 322.91 K	0.256
in ethanol, 328.65 K	0.289
in ethanol, 338.19 K	0.354
in ethanol, 342.82 K	0.388
in ethyl formate, 280.6 K	0.0014
in ethyl formate, 289.68 K	0.0027
in ethyl formate, 294.91 K	0.0038
in ethyl formate, 299.65 K	0.005
in ethyl formate, 304.6 K	0.006
in ethyl formate, 309.59 K	0.0075
in ethyl formate, 314.3 K	0.0087
in ethyl formate, 318.67 K	0.01
in ethyl formate, 322.91 K	0.0113
in isopropanol, 279.79 K	0.0023
in isopropanol, 284.74 K	0.0037
in isopropanol, 294.05 K	0.0085
in isopropanol, 303.99 K	0.0174
in isopropanol, 313.25 K	0.0305
in isopropanol, 323.37 K	0.0464
in isopropanol, 334.05 K	0.0631
in methanol, 279.9 K	0.0627
in methanol, 285.6 K	0.0827
in methanol, 290.81 K	0.101
in methanol, 295.45 K	0.118
in methanol, 305.56 K	0.164
in methanol, 314.4 K	0.202
in methanol, 323.8 K	0.248
in methanol, 328.69 K	0.273
in methanol, 333.53 K	0.3
in n-propanol, 279.55 K	0.0499
in n-propanol, 288.67 K	0.0777
in n-propanol, 299.23 K	0.121
in n-propanol, 308.86 K	0.168
in n-propanol, 318.93 K	0.223
in n-propanol, 328.62 K	0.279
in n-propanol, 338.45 K	0.344
in n-propanol, 343.15 K	0.387
